# Measured values: US20090306012A1, “THERAPEUTIC PROTOCOLS” (priority 2001, published 2009)
# Tests used:
# [1] = system: reduced glutathione (GSH); test: In vivo cardiotoxicity (II): tissue reduced glutathione (GSH) level; parameters: species or system Adult female spontaneously hypertensive rats; conditions: chronic exposure, vs control values
# Method: For the GSH assay, 0.25 mL of 25% w/v metaphosphoric acid was added to the 1 mL of the original crude homogenate, mixed thoroughly and incubated on ice for 15 minutes. The protein precipitate was pelleted by centrifugation at 10,000 g for 10 minutes at 4° C. The clear supernatant was transferred to a clean tube and either stored at −70° C. for no longer than three days or GSH levels were directly determined. The level of GSH was determined using a fluorometric assay using 0-phthalaldehyde as described by Cohn & Lyle (Anal. Biochem. 14(3): 434-440, 1966).
# (§1) Group 4 received no treatment.
# cardiac myocytes [2] = test: In vivo cardiotoxicity (I): cardiac damage by electron microscopy; parameters: species or system Adult female Wistar rats; conditions: chronic exposure, rats
# From the text: (§2) Group 6 received no treatment.
# (§3) Immediately after animal sacrifice, a traverse section of the intraventricular septum was dissected from the heart and fixed in 2% glutaraldehyde, 2% paraformaldehyde and 4% glucose in phosphate buffer. Standard post-buffering, osmication and processing were followed. Specimens were examined with a Philip's electron microscope and the frequency and severity of cardiac damage in the myocardial cells were graded according to the method according to Billingham et al. (Can. Treat. Rep. 62: 865-872, 1978). In brief, blocks were selected that consisted predominantly of transected cardiac myocytes.
# neutrophils = test: Phase I clinical trial of doxorubicin + HA (HyDox) in advanced cancer: toxicity, neutrophil counts; format: in vivo, patients
# From the text: The eligibility criteria, for inclusion in this study, were as follows: Patients must have advanced or metastatic cancer, histologically or cytologically confirmed. Patients were not to have had previous chemotherapy or were to have had no more than one prior chemotherapy regime and were not to have had prior anthracyclines. Patients were to be aged between 18 and 75 years with ambulatory performance status and adequate bone marrow, liver and renal function.
# The treatment plan provided that, in the first chemotherapy cycle, patients be randomized to receive Dox alone or Dox plus HA. The converse applied in the second cycle. In the subsequent four cycles, patients received Dox plus HA. This allowed each patient to act as his/her own control in the toxicity analysis in the first two cycles, reducing the possibility of inter-patient variability affecting result interpretation.
# Injectable sodium chloride was obtained from Baxter Healthcare, Sydney, Australia, as supplied as a 500 ml infusion bag.
# Therefore, the initial dose level was 30 mg/m^2, the next 45 mg/m^2 and the next 60 mg/m^2.
# Glutathione peroxidase = conditions: chronic exposure, vs control groups
# Method: One week after the last injection, the rats were killed by decapitation and internal organs were fixed in 10% v/v formalin in phosphate buffered saline. Prior to tissue fixation, portions of the kidney, liver, and skeletal muscle and heart were quickly removed and placed in tubes on ice. The tissue was either used immediately or stored at −80° C. until assayed. Each sample was minced into small pieces, washed vigorously in two changes of ice cold 0.25 M sucrose containing 1 mM EDTA, then washed in 50 mM potassium phosphate buffer pH 7.8 containing 0.1 mM EDTA prior to recording the tissues ‘wet’ weight. The tissue was then resuspended in 2 mL of ice-phosphate-EDTA buffer and homogenized on ice for three 5-second bursts over 5 minutes using an Ultraturrax homogenizer. The fine suspension was made up to a final volume of 4 mL with the phosphate-EDTA buffer and used for the enzyme and GSH assays described below.
# From the 4 mL tissue homogenate, 1 mL was transferred to a clean 1.5 mL Eppendorf and stored on ice. […]
# SOD activity was determined measuring the Cytochrome c by the method according to McCord & Fridovich (J. Biol. Chem. 244(22): 6056-6063, 1969). GP activity was assessed by an indirect coupled assay (Paglia & Valentine, J. Lab. Clin. Med. 70(1): 158-169, 1967). […]
# For control purposes, antioxidant loading from hepatic, renal and skeletal muscle extracts was also determined.
# cardiac myocytes [3] = test: In vivo cardiotoxicity (II): myocardial pathology by transmission electron microscopy (vacuolated myocytes); parameters: species or system Adult female spontaneously hypertensive rats; conditions: cumulative Dox 13 mg/kg, 12 weeks
# From the text: as §3, §1
# For analyses, tissue processing and assays of antioxidant enzymes and GSH, were carried out as described in Example 2. Analysis of cardiac damage by transmission electron microscopy was also carried out as described in Example 2.
# To minimize anatomical variation across treatment groups, samples of the lateral border of the left ventricle were processed for EM analysis.
# [4] = In vivo cytotoxicity (I): metabolic stress (daily body weight); parameters: species or system Male F1 mice (C57×CBA)
# From the text: All treatment groups were monitored for weight loss on a daily basis. At the end of the study the data were expressed as percentage of original body mass and graphed in this maimer.
# [5] = In vivo cytotoxicity (I): general toxicity (survival); conditions: 24 mg/kg Dox, single iv bolus, 14 days
# Method: Male F1 mice (C57×CBA; 11-13 weeks old), used for in vivo studies, were obtained from The Animal Central Division (Monash University, Victoria, Australia). The mice were distributed at random into each treatment group (6 per treatment group) and allowed to acclimatize for 2-3 weeks before commencing the study. […] Before a treatment group was started, blood (200 μL) from each experimental animal was collected by retroorbital sinus bleed and immediately transferred to tube containing EDTA, gently flick mixed and stored on ice until analysis. This was taken as day 0, after which the mice were given a single bolus intravenous injection via tail vein with corresponding control, drug, or HA/drug combinations. The mice were then sequentially bled on days 1, 4, 7, 10 and 14 by the aforementioned method. All blood samples were analyzed for white blood cell composition in an Adiva 120 Differential Coulter Counter (Bayer Diagnostics, USA). Throughout the duration of the study, mouse mass, food intake and general activity levels were recorded on a daily basis. On day 14, mice were sacrificed by cervical dislocation and the heart, lungs, liver, spleen, kidneys, stomach, intestines and testicles removed and immediately fixed in 10% v/v formalin in phosphate buffered saline.
# cardiac troponin T = test: In vivo cardiotoxicity (I): serum levels of cardiac troponin-T (cTnT); parameters: species or system Adult female Wistar rats; conditions: weekly iv […] Dox, rats
# Method: as §2
# Prior to the commencement of the study, blood (500 μL) was collected from each rat via a tail vein bleed procedure. Blood was collected in 1.5 mL Capiject tube and allowed to clot for a minimum of 30 minutes. […] After pre-bleeds, each experimental animal was injected with respective drug combination or control treatment and 24 hours after administration the rats were tail-bled and processed as described above. Thereafter, animals were injected with drug combinations at weekly intervals for 12 weeks, and blood was collected 24 hours after treatment.
# [6] = system: peripheral blood neutrophils; test: In vivo cytotoxicity (II): daily blood neutrophil and differential counts; parameters: species or system Male F1 mice (C57×CBA)
# Method: For each treatment dosage a total of 6 groups (n=8 mice per group) were used. Data from each treatment group were established by staggering results of groups of 6 (counted individually), sampling each group every 4 days so that a daily assessment could be established. Each group was treated as described above, prior to the drug administration. -Throughout this study, blood was collected and analyzed for neutrophil content as outlined in previous examples.
# Again, to normalize the data for comparison between treatments, neutropenia was expressed as a percentage of neutrophils on day 0 (before drug administration).
structure (smiles),measurement,setting,value
"COc1cccc2c1C(=O)c1c(O)c3c(c(O)c1C2=O)C[C@@](O)(C(=O)CO)C[C@@H]3O[C@H]1C[C@H](N)[C@H](O)[C@H](C)O1 [Dox, doxorubicin]",Level of hepatic GSH,[1],remained unchanged
same,Appearance of myocytes in the heart (electron micrographs),cardiac myocytes [2],vacuolated myocytes
same,Neutrophils as % of Day 1,"neutrophils; Patient 1, Cycle 2, 30 mg/m2, day 1",100%
same,Neutrophils as % of Day 1,"neutrophils; Patient 1, Cycle 2, 30 mg/m2, day 6",100%
same,Neutrophils as % of Day 1,"neutrophils; Patient 1, Cycle 2, 30 mg/m2, day 8",109%
same,Neutrophils as % of Day 1,"neutrophils; Patient 1, Cycle 2, 30 mg/m2, day 10",109%
same,Neutrophils as % of Day 1,"neutrophils; Patient 1, Cycle 2, 30 mg/m2, day 13",83%
same,Neutrophils as % of Day 1,"neutrophils; Patient 1, Cycle 2, 30 mg/m2, day 15",57%
same,Neutrophils as % of Day 1,"neutrophils; Patient 1, Cycle 2, 30 mg/m2, day 20",57%
same,Neutrophils as % of Day 1,"neutrophils; Patient 1, Cycle 2, 30 mg/m2, day 21",74%
same,Neutrophils as % of Day 1,"neutrophils; Patient 1, Cycle 3, 30 mg/m2, day 1",100%
same,Neutrophils as % of Day 1,"neutrophils; Patient 2, Cycle 1, 30 mg/m2, day 1",100%
same,Neutrophils as % of Day 1,"neutrophils; Patient 2, Cycle 1, 30 mg/m2, day 4",120%
same,Neutrophils as % of Day 1,"neutrophils; Patient 2, Cycle 1, 30 mg/m2, day 8",132%
same,Neutrophils as % of Day 1,"neutrophils; Patient 2, Cycle 1, 30 mg/m2, day 10",78%
same,Neutrophils as % of Day 1,"neutrophils; Patient 2, Cycle 1, 30 mg/m2, day 15",54%
same,Neutrophils as % of Day 1,"neutrophils; Patient 2, Cycle 1, 30 mg/m2, day 17",40%
same,Neutrophils as % of Day 1,"neutrophils; Patient 2, Cycle 1, 30 mg/m2, day 21",86%
same,Neutrophils as % of Day 1,"neutrophils; Patient 2, Cycle 3, 30 mg/m2, day 1",100%
same,Neutrophils as % of Day 1,"neutrophils; Patient 5, Cycle 1, 30 mg/m2, day 1",100%
same,Neutrophils as % of Day 1,"neutrophils; Patient 5, Cycle 1, 30 mg/m2, day 4",78%
same,Neutrophils as % of Day 1,"neutrophils; Patient 5, Cycle 1, 30 mg/m2, day 7",70%
same,Neutrophils as % of Day 1,"neutrophils; Patient 5, Cycle 1, 30 mg/m2, day 9",73%
same,Neutrophils as % of Day 1,"neutrophils; Patient 5, Cycle 1, 30 mg/m2, day 12",49%
same,Neutrophils as % of Day 1,"neutrophils; Patient 5, Cycle 1, 30 mg/m2, day 14",38%
same,Neutrophils as % of Day 1,"neutrophils; Patient 5, Cycle 1, 30 mg/m2, day 16",32%
same,Neutrophils as % of Day 1,"neutrophils; Patient 5, Cycle 1, 30 mg/m2, day 19",38%
same,Neutrophils as % of Day 1,"neutrophils; Patient 5, Cycle 1, 30 mg/m2, day 21",59%
same,Neutrophils as % of Day 1,"neutrophils; Patient 5, Cycle 3, 30 mg/m2, day 1",100%
same,Neutrophils as % of Day 1,"neutrophils; Patient 7, Cycle 1, 45 mg/m2, day 1",100%
same,Neutrophils as % of Day 1,"neutrophils; Patient 7, Cycle 1, 45 mg/m2, day 4",46%
same,Neutrophils as % of Day 1,"neutrophils; Patient 7, Cycle 1, 45 mg/m2, day 8",56%
same,Neutrophils as % of Day 1,"neutrophils; Patient 7, Cycle 1, 45 mg/m2, day 10",41%
same,Neutrophils as % of Day 1,"neutrophils; Patient 7, Cycle 1, 45 mg/m2, day 12",35%
same,Neutrophils as % of Day 1,"neutrophils; Patient 7, Cycle 1, 45 mg/m2, day 15",19%
same,Neutrophils as % of Day 1,"neutrophils; Patient 7, Cycle 1, 45 mg/m2, day 17",14%
same,Neutrophils as % of Day 1,"neutrophils; Patient 7, Cycle 1, 45 mg/m2, day 19",21%
same,Neutrophils as % of Day 1,"neutrophils; Patient 7, Cycle 3, 45 mg/m2, day 1",100%
same,Neutrophils as % of Day 1,"neutrophils; Patient 8, Cycle 2, 45 mg/m2, day 1",100%
same,Neutrophils as % of Day 1,"neutrophils; Patient 8, Cycle 2, 45 mg/m2, day 4",84%
same,Neutrophils as % of Day 1,"neutrophils; Patient 8, Cycle 2, 45 mg/m2, day 8",85%
same,Neutrophils as % of Day 1,"neutrophils; Patient 8, Cycle 2, 45 mg/m2, day 10",39%
same,Neutrophils as % of Day 1,"neutrophils; Patient 8, Cycle 2, 45 mg/m2, day 12",81%
same,Neutrophils as % of Day 1,"neutrophils; Patient 8, Cycle 2, 45 mg/m2, day 15",62%
same,Neutrophils as % of Day 1,"neutrophils; Patient 10, Cycle 1, 60 mg/m2, day 1",100%
same,Neutrophils as % of Day 1,"neutrophils; Patient 10, Cycle 1, 60 mg/m2, day 4",93%
same,Neutrophils as % of Day 1,"neutrophils; Patient 10, Cycle 1, 60 mg/m2, day 6",63%
same,Neutrophils as % of Day 1,"neutrophils; Patient 10, Cycle 1, 60 mg/m2, day 8",33%
same,Neutrophils as % of Day 1,"neutrophils; Patient 10, Cycle 1, 60 mg/m2, day 10",4%
same,Neutrophils as % of Day 1,"neutrophils; Patient 10, Cycle 1, 60 mg/m2, day 13",3%
same,Neutrophils as % of Day 1,"neutrophils; Patient 10, Cycle 1, 60 mg/m2, day 17",20%
same,Neutrophils as % of Day 1,"neutrophils; Patient 10, Cycle 1, 60 mg/m2, day 20",47%
same,Neutrophils as % of Day 1,"neutrophils; Patient 12, Cycle 1, 60 mg/m2, day 1",100%
same,Neutrophils as % of Day 1,"neutrophils; Patient 12, Cycle 1, 60 mg/m2, day 4",124%
same,Neutrophils as % of Day 1,"neutrophils; Patient 12, Cycle 1, 60 mg/m2, day 7",95%
same,Cardiac glutathione peroxidase levels,Glutathione peroxidase,equally increased
same,Myocyte vacuolation compared with the HyDox group,cardiac myocytes [3],almost two-three-fold greater
same,"Maximum weight loss, % of original body mass",[4]; 9 mg/kg Dox,~−10%
same,Original body mass lost,"[4]; 12 mg/kg Dox, by day 11",~13%
same,Original weight lost,"[4]; 24 mg/kg dosage group, by day 7",~25%
same,Mice that survived until the end of the study,[5],2 mice
same,Cumulative dose of Dox at which cardiotoxicity (serum troponin T release) begins,cardiac troponin T,9 mg/kg
same,Duration of nadir neutropenia,[6]; 12 mg/kg,2 days
same,Onset of nadir neutropenia,[6]; 12 mg/kg,4 days
same,Duration of nadir neutropenia before recovery,[6]; 16 mg/kg,> 48 h
